Laboratory results published in patent US12492178B2, “Stable polymorph of R-MDMA HCl” (EMPATHBIO, INC., priority 2021, dated 2025).
Read-outs that look alike come from different tables or passages of the source.

Legend:
[1] = background statement; cited from earlier work
[2] = Approximate solubility in various solvents at ambient temperature (aliquot addition, visual observation); type: physicochemical; conditions: for solubility: ambient temperature
Protocol: Aliquots of various solvents were added to measured amounts of a Form I with agitation (typically sonication) at ambient temperature until complete dissolution was achieved, as judged by visual observation. If dissolution occurred after the addition of the first aliquot, values are reported as “>”.

[3] = pH of aqueous solution using pH test strips; type: physicochemical; conditions: 10 mg/mL aqueous solution
[4] = Dynamic Vapor Sorption (DVS); type: physicochemical; conditions: for Post-DVS crystalline form: XRPD of post-DVS solids
Protocol: Dynamic vapor sorption data were collected on a Surface Measurement System DVS Intrinsic instrument.
Samples were not dried prior to analysis. Sorption and desorption data were collected over a range from 5% to 95% RH at 10% RH increments under a nitrogen purge. The equilibrium criterion used for analysis was less than 0.0100% weight change in 5 minutes with a maximum equilibration time of 3 hours. Data were not corrected for the initial moisture content of the samples.

[5] = Particle size distribution (PSD); type: physicochemical
[6] = Dry milling, effect on crystallinity (XRPD); type: physicochemical; conditions: 30 Hz for 3×10 minutes
Protocol: A dry milling experiment was conducted to investigate the effect on crystallinity.

[7] = Stable form screen from slurries in organic solvent (state by XRPD); type: physicochemical
[8] = Stable form screen from slurries in aqueous/organic mixtures at room temperature for 7 days (state by XRPD); type: physicochemical; conditions: RT
[9] = Heating by DSC from RT to 200° C. and cooling to RT, XRPD of treated sample; type: physicochemical; conditions: cooled down to RT
Protocol: An (R)-MDMA HCl Form 1 sample was heated by DSC from RT to 200° C. and cooled down to RT.

[10] = Stable form and polymorph screen, twenty-nine experiments (XRPD); type: physicochemical; conditions: all samples of Example 3, XRPD
[11] = Relative humidity stressing (state by XRPD); conditions: for Observations after RH stressing / State after RH stressing: 6 d

Question: With `CNC(C)Cc1ccc2c(c1)OCO2.Cl` (racemic) [hydrochloride salt of racemic MDMA] as the compound, how does the “Solubility in water (in words)” value [1] read?
Answer: soluble in water

Question: Which “Solubility in water (in words)” value [1] does the source give for `CNC(C)Cc1ccc2c(c1)OCO2` (stereo not drawn) [MDMA, 3,4-Methylenedioxymethamphetamine] here?
Answer: insoluble in water

Question: With `CN[C@H](C)Cc1ccc2c(c1)OCO2.Cl` [R-MDMA HCl Form I, (R)-3,4-methylenedioxymethamphetamine HCl] as the compound, how does the “Approximate solubility at RT (in words)” value ([2]; ACN, DCM, and most alcohols, listed as R-MDMA HCl Form 1, HCl) read?
Answer: good solubility in ACN, DCM, and most alcohols

Question: And the solubility ([2]; Water, listed as R-MDMA HCl Form 1, HCl)?
Answer: >110000 µg/mL

Question: And the “Approximate solubility at RT (in words)” value ([2]; aqueous environments, HCl)?
Answer: The compound exhibited high solubility in aqueous environments,

Question: What about the “Approximate solubility at RT (in words)” value ([2]; aqueous environments, listed as R-MDMA HCl Form 1, HCl) of the same compound?
Answer: high solubility in aqueous environments

Question: And the “Approximate solubility at RT (in words)” value ([2]; most organic solvents tested, HCl)?
Answer: Lower solubility was observed in most organic solvents tested.

Question: What about the “Approximate solubility at RT (in words)” value ([2]; most organic solvents tested, listed as R-MDMA HCl Form 1, HCl) of the same compound?
Answer: Lower solubility was observed in most organic solvents tested

Question: And the solubility ([2]; organic solvent or mixture, thermodynamic from solid, 1-BuOH, read-out: Solubility)?
Answer: 3000 µg/mL

Question: And the solubility ([2]; organic solvent or mixture, thermodynamic from solid, 90:10 Acetone/Water, read-out: Solubility)?
Answer: > 76000 µg/mL

Question: And the solubility ([2]; organic solvent or mixture, thermodynamic from solid, Acetone, read-out: Solubility)?
Answer: < 1000 µg/mL

Question: What about the solubility ([2]; organic solvent or mixture, thermodynamic from solid, CAN, read-out: Solubility) of the same compound?
Answer: 7000 µg/mL

Question: What about the solubility ([2]; organic solvent or mixture, thermodynamic from solid, DCM, read-out: Solubility) of the same compound?
Answer: 16000 µg/mL

Question: And the solubility ([2]; organic solvent or mixture, thermodynamic from solid, EtOAc, read-out: Solubility)?
Answer: < 1000 µg/mL

Question: What about the solubility ([2]; organic solvent or mixture, thermodynamic from solid, EtOH, read-out: Solubility) of the same compound?
Answer: 25000 µg/mL

Question: What about the solubility ([2]; organic solvent or mixture, thermodynamic from solid, Heptane, read-out: Solubility) of the same compound?
Answer: < 1000 µg/mL

Question: What about the solubility ([2]; organic solvent or mixture, thermodynamic from solid, IPA, read-out: Solubility) of the same compound?
Answer: 6000 µg/mL

Question: What about the solubility ([2]; organic solvent or mixture, thermodynamic from solid, MTBE, read-out: Solubility) of the same compound?
Answer: < 1000 µg/mL

Question: And the solubility ([2]; organic solvent or mixture, thermodynamic from solid, MeOH, read-out: Solubility)?
Answer: > 114000 µg/mL

Question: What about the solubility ([2]; organic solvent or mixture, thermodynamic from solid, MeOH/MTBE (5:95), read-out: Solubility) of the same compound?
Answer: < 1000 µg/mL

Question: And the solubility ([2]; organic solvent or mixture, thermodynamic from solid, MeOH/MTBE (10:90), read-out: Solubility)?
Answer: < 2000 µg/mL

Question: What about the solubility ([2]; organic solvent or mixture, thermodynamic from solid, MeOH/MTBE (20:80), read-out: Solubility) of the same compound?
Answer: 3000 µg/mL

Question: And the solubility ([2]; organic solvent or mixture, thermodynamic from solid, THF, read-out: Solubility)?
Answer: < 1000 µg/mL

Question: What about the solubility ([2]; organic solvent or mixture, thermodynamic from solid, p-dioxane, read-out: Solubility) of the same compound?
Answer: < 1000 µg/mL

Question: And the solubility ([2]; organic solvent or mixture, thermodynamic from solid, t-BuOH, read-out: Solubility)?
Answer: 1000 µg/mL

Question: What about the solubility ([2]; thermodynamic from solid, Water, read-out: Solubility) of the same compound?
Answer: > 110000 µg/mL

Question: And the “pH of aqueous solution” value [3]?
Answer: pH of a 10 mg/mL aqueous solution is approximately 6 using pH test

Question: And the “Water sorbed, equivalent moles” value ([4]; 5-85% RH)?
Answer: 0.04 moles water

Question: What about the DVS wt. gain ([4]; 5-85% RH, sorption, HCl) of the same compound?
Answer: 0.28% wt. gain 5-85% RH

Question: And the DVS wt. gain ([4]; 5-85% RH, sorption, listed as (R)-MDMA HCl Form I, HCl)?
Answer: 0.28%

Question: What about the DVS weight gain ([4]; 5-95% RH, sorption, listed as (R)-3,4-methylenedioxymethamphetamine HCl Form I, HCl) of the same compound?
Answer: 5.28±0.02%

Question: What about the DVS wt. loss ([4]; 85-5% RH, desorption) of the same compound?
Answer: 0.51% wt. loss 85-5% RH

Question: And the “Water sorbed, equivalent moles” value ([4]; 85-95% RH, per mole of salt)?
Answer: 0.7 mol water

Question: What about the DVS wt. gain ([4]; 85-95% RH, sorption) of the same compound?
Answer: 5.00%

Question: And the DVS weight loss ([4]; 95-5% RH, desorption, listed as (R)-3,4-methylenedioxymethamphetamine HCl Form I, HCl)?
Answer: 5.35±0.02%

Question: What about the DVS wt. loss ([4]; 95-85% RH, desorption) of the same compound?
Answer: 4.84% wt. loss 95-85% RH

Question: And the Post-DVS crystalline form ([4]; HCl)?
Answer: Post-DVS crystalline form was found to be Form I

Question: And the Post-DVS crystalline form ([4]; listed as (R)-MDMA HCl Form I, HCl)?
Answer: consistent with Form I

Question: What about the “Hygroscopicity (in words)” value ([4]; between 5% and 85% RH) of the same compound?
Answer: low hygroscopicity

Question: And the “Hygroscopicity (in words)” value ([4]; between 85% and 95% RH)?
Answer: Significant hygroscopicity

Question: And the Hysteresis on desorption ([4]; desorption 95-5% RH)?
Answer: virtually no hysteresis

Question: And the “PSD d10” value [5]?
Answer: 5.10 μm

Question: And the “PSD d50” value [5]?
Answer: 19.2 μm

Question: And the “PSD d90” value [5]?
Answer: 48.8 μm

Question: And the “State after dry milling” value [6]?
Answer: Form I with no apparent decrease in crystallinity

Question: What about the State after slurry ([7]; 1-BuOH, RT, 14 d) of the same compound?
Answer: Form I

Question: What about the State after slurry ([7]; 90:10 EtOAc/MeOH, RT, 14 d) of the same compound?
Answer: Form I

Question: And the State after slurry ([7]; ACN, RT, 14 d)?
Answer: Form I

Question: And the State after slurry ([7]; DCM, RT, 14 d)?
Answer: Form I

Question: What about the State after slurry ([7]; EtOH, RT, 14 d) of the same compound?
Answer: Form I

Question: And the State after slurry ([7]; IPA, RT, 14 d)?
Answer: Form I

Question: What about the State after slurry ([7]; IPA, ~5° C., 14 d) of the same compound?
Answer: Form I

Question: What about the State after slurry ([7]; MeOH/MTBE (10:90), RT, 5 d) of the same compound?
Answer: Form I

Question: And the State after slurry ([7]; t-BuOH, ~75° C., 7 d)?
Answer: Form I

Question: What about the State after slurry ([8]; THF/water 98:2 (aw 0.38)) of the same compound?
Answer: Form I

Question: What about the State after slurry ([8]; acetone/water 98:2 (aw 0.35)) of the same compound?
Answer: Form I

Question: And the State after slurry ([8]; p-dioxane/water 95:5 (aw 0.40))?
Answer: Form I

Question: And the “Crystalline state after heating” value [9]?
Answer: Form I crystalline state

Question: What about the “Form found in stable form and polymorph screen” value [10] of the same compound?
Answer: Form I was formed in each case

Question: What about the “Observations after RH stressing” value ([11]; 75% RH) of the same compound?
Answer: free-flowing solids, B/E

Question: And the “State after RH stressing” value ([11]; 75% RH)?
Answer: Form I

Question: What about the “Observations after RH stressing” value ([11]; 90% RH) of the same compound?
Answer: mostly free-flowing solids, some clumps,

Question: What about the “State after RH stressing” value ([11]; 90% RH) of the same compound?
Answer: Form I

Question: And the “Physical stability upon stressing” value ([11]; 97% RH for 6 days)?
Answer: exhibits physical stability

Question: What about the “Observations after RH stressing” value ([11]; 97% RH) of the same compound?
Answer: off-white fines, B/E, some deliquesence

Question: And the “State after RH stressing” value ([11]; 97% RH)?
Answer: Form I, PO
